Results from patent US6271342A, “Sugar-modified cytostatics” (Bayer Aktiengesellschaft, priority 1995, dated 2001).
Structures can show the parent of a compound that is named as a salt.

What was measured:
Test in all cases: Growth inhibition test (MTT) for cytotoxic properties
[1] = test system: SW 480; format: cell-based, human
Procedure: (§1) Growth Inhibition Test for Determination of the Cytotoxic Properties of Glycoconjugates of Batracyline and of Quinolone-a
(§2) The human colon cell lines SW 480 and HT 29 (ATCC no. CCL 228 and HBT-38) and the mouse melanoma cell line B 16 F 10 were cultured in Roux dishes in RPMI 1640 medium with addition of 10% FCS. The cultures were then trypsinized and taken up in RPMI plus 10% FCS to a cell count of 50,000 cells/ml. 100 μl of cell suspension/well were introduced into a 96 microwell plate and incubated for 1 day at 37° C. in a CO2 incubating cabinet. A further 100 μl of RPMI medium and 1 μl of dimethyl sulphoxide with the test substances were then added. The growth was checked after day 3 and day 6. 40 μl of MTT solution (3-(4,5-dimethylthiazol-2-yl)-2,5-diphenyltetrazoline bromide) with an initial concentration of 5 mg/ml of H2 O were added to each microwave. The plate was incubated for 5 hours in a CO2 incubating cabinet at 37° C. The medium was then sucked off and 100 μl of i-propanol/well were added. After shaking for 30 minutes with 100 μl of H2 O, the extinction was measured at 540 nm with a Titertek Multiskan MCC/340 (Flow).
(§3) The cytotoxic action of the glycoconjugates of batracyline described is shown in Table 1a as the IC50 value in each case for the SW 480 and HT 29 cell lines.

[2] = test system: HT 29; format: cell-based, human
Procedure: as §1, §2, §3

[3] = test system: B 16 F 10; format: cell-based, mouse; conditions: Table 1b
Procedure: as §1, §2

[4] = Table 1a, glycoconjugates of batracyline

Compound	IC50 ([1]; Table 1b) [µM]	IC50 ([2]; Table 1b) [µM]	IC50 [3] [µM]	IC50 [1, 4] [µM]	IC50 [2, 4] [µM]
CC1OC(Oc2ccc(NC(=S)NC3C=CCC4CN(c5c(F)cc6c(=O)c(C(=O)O)cn(C7CC7)c6c5Cl)CC43)cc2)C(O)C(OCC(=O)O)C1O (mixture of isomers) [Example 12.12, N-[O-(3-O-Carboxymethyl-β-L-fucosyl)-4hydroxy-phenylamino-thiocarbonyl-quinolone-a, di-sodium salt]	8	13	0.5	–	–
Cc1csc2c(C(=O)O)c(=O)c3cc(F)c(N4CC5C(C)C=CC(NC(=O)C(CCCCN)NC(=S)Nc6ccc(OC7OC(C)C(O)C(OCC(=O)O)C7O)cc6)C5C4)cc3n12 (mixture of isomers) [Example 14.3, N-{N^α -[O-(3-O-Carboxymethyl-β-L-fucosyl)-4-hydroxy-phenylamino-thiocarbonyl]-lysyl}-quinolone-c, di-sodium salt]	8	4	4	–	–
C[C@@H]1O[C@H](Oc2ccc(NC(=S)NCCCC[C@H](N)C(=O)N[C@H](C)C(=O)NC3C=CCC4CN(c5c(F)cc6c(=O)c(C(=O)O)cn(C7CC7)c6c5Cl)CC43)cc2)[C@@H](O)[C@H](OCC(=O)O)[C@@H]1O (stereo partly drawn) [Example 10.1, N-{N^ε -[O(3-O-Carboxymethyl-β-L-fucosyl)-4-hydroxy-phenylamino-thiocarbonyl]-lysyl-D-alanyl}-quinolone-a]	50	> 250	15	–	–
CO[C@H]1[C@H](O)[C@@H](Oc2ccc(NC(=S)NCCCC[C@H](N)C(=O)N[C@@H](C)C(=O)NC3C=CCC4CN(c5c(F)cc6c(=O)c(C(=O)O)cn(C7CC7)c6c5Cl)CC43)cc2)O[C@@H](C)[C@H]1O (stereo partly drawn) [Example 10.2, N-{N^ε -[O-(3-O-Methyl-β-L-fucosyl)-4-hydroxy-phenylamino-thiocarbonyl]-lysyl-alanyl}-quinolone-a]	4	3	5	–	–
CO[C@H]1[C@H](O)[C@@H](Oc2ccc(NC(=S)NCCCC[C@H](N)C(=O)NC3C=CCC4CN(c5c(F)cc6c(=O)c(C(=O)O)cn(C7CC7)c6c5Cl)CC43)cc2)O[C@@H](C)[C@H]1O (stereo partly drawn) [Example 10.3, N-{N^ε -[O-(3-O-Methyl-β-L-fucosyl)-4-hydroxy-phenylamino-thiocarbonyl]-lysyl}-quinolone-a]	5	4	0.7	–	–
C[C@@H]1O[C@H](Oc2ccc(NC(=S)NCCCC[C@H](NC(=S)Nc3ccc(O[C@H]4O[C@@H](C)[C@@H](O)[C@@H](OCC(=O)O)[C@@H]4O)cc3)C(=O)NC3C=CCC4CN(c5c(F)cc6c(=O)c(C(=O)O)cn(C7CC7)c6c5Cl)CC43)cc2)[C@@H](O)[C@H](OCC(=O)O)[C@@H]1O (stereo partly drawn) [Example 11.8, N-{N^α,N^ε -Bis-[O-(3-O-carboxymethyl-β-L-fucosyl)-4-hydroxy-phenylamino-thiocarbonyl]-lysyl}-quinolone-a, di-sodium salt]	12	16	15	–	–
C[C@@H]1O[C@H](Oc2ccc(NC(=S)NCCCC[C@@H](NC(=S)Nc3ccc(O[C@H]4O[C@@H](C)[C@@H](O)[C@@H](OCC(=O)O)[C@@H]4O)cc3)C(=O)NC3C=CCC4CN(c5c(F)cc6c(=O)c(C(=O)O)cn(C7CC7)c6c5Cl)CC43)cc2)[C@@H](O)[C@H](OCC(=O)O)[C@@H]1O (stereo partly drawn) [Example 11.9, N-{N^α,N^ε -Bis-[O-(3-O-carboxymethyl-β-L-fucosyl)-4-hydroxy-phenylamino-thiocarbonyl]-D-lysyl}-quinolone-a, di-sodium salt]	12	12	9	–	–
CO[C@H]1[C@H](O)[C@@H](Oc2ccc(NC(=S)N[C@@H](C)C(=O)NC3C=CCC4CN(c5c(F)cc6c(=O)c(C(=O)O)cn(C7CC7)c6c5Cl)CC43)cc2)O[C@@H](C)[C@H]1O (some centres unmarked) [Example 12.2]	4	–	0.8	–	–
N-{N^α -[O-(3-O-Methyl-β-L-fucosyl)-4-hydroxy-phenylamino-thiocarbonyl]-lysy l-D-alanyl}-batracyline [Example 4.3]	–	–	–	20	20
N-{N^α -[O-(3-O-Methyl-β-L-fucosyl)-4-hydroxyphenylamino-thiocarbonyl]-N. sup.ε -[4-hydroxyethylamino-2-[O-(3-O-methyl-β-L-fucosyl)-4-hydroxyphenylam ino]triazin-6-yl]]-lysyl-D-alanyl}-batracyline [Example 5.8]	–	–	–	100	> 250
N-{N^α -[O-(3-O-Methyl-β-L-fucosyl)-4-hydroxyphenylamino-thiocarbonyl]-N. sup.ε -[O-(3-O-carboxymethyl-β-L-fucosyl)-4-hydroxyphenylamino-thiocarbonyl ]-lysyl-D-alanyl}-batracyline [Example 5.2]	–	–	–	20	55
N-{N^α -[O-(β-D-Galactopyranosyl)-4-hydroxy-phenylamino-thiocarbonyl]-lysyl- D-alanyl}-batracyline [Example 4.6]	–	–	–	10	10
N-{N^α,N^ε -Bis-10-(3-O-carbamoylmethyl-β-D-galactopyranosyl)-4-hydroxy-phenylam ino-thiocarbonyl]-lysyl-glycyl}-batracyline [Example 6.60]	–	–	–	50	40
N-{N^α,N^ε -Bis-[O-(2-hydroxyethyl-β-L-fucosyl)-4-hydroxy-phenylamino-thiocarbon yl]-lysyl-D-alanyl}-batracyline [Example 6.10]	–	–	–	50	50
N-{N^α,N^ε -Bis-[O-(3,4-di-O-methyl-β-D-galactopyranosyl)-4-hydroxy-phenylamino- thiocarbonyl]-lysyl-D-seryl}-batracyline [Example 6.40]	–	–	–	170	60
N-{N^α,N^ε -Bis-[O-(3,4-di-O-methyl-β-D-galactopyranosyl)-4-hydroxy-phenylamino- thiocarbonyl]-lysyl-seryl}-batracyline [Example 6.32]	–	–	–	60	60
N-{N^α,N^ε -Bis-[O-(3-O-carbamoylmethyl-β-D-galactopyranosyl)-4-hydroxy-phenylam ino-thiocarbonyl]-lysyl-D-seryl}-batracyline [Example 6.43]	–	–	–	90	80
N-{N^α,N^ε -Bis-[O-(3-O-carboxymethyl-β-D-galactopyranosyl)-4-hydroxy-phenylamin o-thiocarbonyl]-lysyl-D-asparagyl}-batracyline, di-sodium salt [Example 6.46]	–	–	–	120	100
N-{N^α,N^ε -Bis-[O-(3-O-carboxymethyl-β-D-galactopyranosyl)-4-hydroxy-phenylamin o-thiocarbonyl]-lysyl-glycyl}-batracyline, di-sodium salt [Example 6.59]	–	–	–	50	50
N-{N^α,N^ε -Bis-[O-(3-O-carboxymethyl-β-L-fucosyl)-4-hydroxy-phenylamino-thiocar bonyl]-lysyl}-batracyline [Example 6.25]	–	–	–	50	40
N-{N^α,N^ε -Bis-[O-(3-O-methoxycarbonylmethyl-β-D-galactopyranosyl)-4-hydroxy-ph enylamino-thiocarbonyl]-lysyl-D-alanyl}-batracyline [Example 6.80]	–	–	–	40	25
N-{N^α,N^ε -Bis-[O-(3-O-methyl-α-D-mannopyranosyl)-4-hydroxy-phenylamino-thioca rbonyl]-lysyl-seryl}-batracyline [Example 6.36]	–	–	–	70	70
N-{N^α,N^ε -Bis-[O-(3-O-methyl-β-D-galactopyranosyl)-4-hydroxy-phenylamino-thioc arbonyl]-lysyl-seryl}-batracyline [Example 6.30]	–	–	–	60	70
N-{N^α,N^ε -Bis-[O-(3-O-methyl-β-L-fucosyl)-4-hydroxy-phenylamino-thiocarbonyl]- lysyl-D-seryl}-batracyline [Example 6.23]	–	–	–	107	45
N-{N^α,N^ε -Bis-[O-(3-O-n-propyl-β-L-fucosyl)-4-hydroxy-phenylamino-thiocarbonyl ]lysyl-D-alanyl}-batracyline [Example 6.7]	–	–	–	60	> 250
N-{N^α,N^ε -Bis-[O-(α-L-rhamnosyl)-4-hydroxy-phenylamino-thiocarbonyl]-lysyl-D- alanyl}-batracyline [Example 6.15]	–	–	–	> 250	> 250
N-{N^ε -O-(2-O-Methyl-β-L-fucosyl)-4-hydroxy-phenylamino-thiocarbonyl]-lysyl -D-alanyl}-batracyline [Example 3.2]	–	–	–	100	75
N-{N^ε -[O-(3-O-Carbamoylmethyl-β-L-fucosyl)-4-hydroxy-phenylamino-thiocarbo nyl]-lysyl-D-alanyl}-batracyline, sodium salt [Example 3.10]	–	–	–	100	125
N-{Nα-[O-(β-L-Fucosyl)-4-hydroxy-phenylamino-thiocarbonyl]-lysy l-D-alanyl}-batracyline [Example 4.1]	–	–	–	25	30
